From patent US20180055838A1, “METHODS AND COMPOSITIONS FOR TREATMENT OF DERMAL AND EPIDERMAL WOUNDS” (THE PENN STATE RESEARCH FOUNDATION, priority 2011, published 2018)

Tests used:
[1] = system: epithelium covering the granulation tissue; assay: Histopathology and epithelial thickness of wounded region 20 days after wounding; format: in vivo, rat
Procedure: On day 20 following creation of the wound, some rats were euthanized and the original wound areas as well as tissue peripheral to the wound that encompassed the 20 mm diameter circle were excised and fixed in 10% neutral buffered formalin. Tissues were processed for paraffin embedding; sections were stained with hematoxylin and eosin. The thickness of the epithelium covering the granulation tissue was measured with an ocular micrometer. Five measures/section from 7-8 wounds/treatment group were evaluated at 250× magnification.

[2] = system: basal cells of the cutaneous epithelium; assay: DNA synthesis (BrdU labeling index) in stratum basale of unwounded dorsal skin; format: in vivo; settings: for increase of BrdU incorporation relative to labeling index of DB animals: DB (T1D) rats
Procedure: Male Sprague-Dawley rats (˜150 g) were purchased from Charles River Laboratories (Wilmington, Mass.), and housed under standard laboratory conditions; water and food were available ad libitum. All investigations conformed to the guidelines of The Pennsylvania State University College of Medicine Institutional Animal Care and Use Committee.
Type 1 diabetes (T1D) was induced by intraperitoneal (i.p.) injections of 40 mg/kg streptozotocin (STZ, Sigma, St. Louis, Mo.), on two consecutive days (Klocek et al., Journal of Ocular Pharmacology and Therapeutics, 23:89-102 (2007); Havel et al., Diabetes, 49:244-252 (2000)). This regimen produced insulin-dependent diabetes in 100% of the animals within 72-96 h; rats with blood glucose levels measuring >350 mg/dl were considered diabetic (DB). Blood glucose levels were monitored from the tail vein using a True Track® Smart System glucometer (Home Diagnostics, Ft. Lauderdale, Fla.) before receiving STZ, and at 1, 4, and 8 weeks following induction of hyperglycemia. Control animals receiving an injection of an equivalent volume of sterile saline were termed “normal”. All rats were weighed weekly.
Normal (n=24) and diabetic (DB) rats (n=24) were randomized 8 weeks after injections of STZ or saline, and received NTX (Sigma-Aldrich, Indianapolis, Ind.) systemically (30 mg/kg, i.p. or subcutaneous (s.c.) at 0800 h) or topically 3 times daily at 0700, 1200, and 1700 h. For topical applications, NTX was dissolved in Sorenson's phosphate buffer (SPB), KY jelly (KYJ) (K-Y, Personal Products Company, McNeil-PPC, Inc., Skillman, N.J.), Neutrogena moisturizing cream (MCN) (Neutrogena Corporation, Los Angeles, Calif.), or DMSO (VWR, Philadelphia, Pa.). NTX was dissolved in sterile water at dosages of 10^−4 M, 10^−5 M or 10^−6 M, and thoroughly mixed into each of the carriers (1:1, v/v); 0.5 ml of saline mixed into corresponding carriers served as the respective vehicle control.
On the day preceding NTX or vehicle treatment, an 8×8 cm area was shaved on the dorsal surface of each rat and 4 circles (approximately 20 mm in diameter) were made with a permanent marker to denote locations of subsequent topical applications and/or skin collection. Using an applicator stick, one ml of carrier containing NTX or vehicle was placed within the demarked areas. Applications of NTX formulations were randomized to different positions. Each animal received NTX in 3 different concentrations, as well as the vehicle, in the same carrier; some rats received only saline in a carrier or were untreated.
To assess cells undergoing DNA synthesis, rats were injected i.p. with 100 mg/kg BrdU (Sigma-Aldrich) 3 and 6 h before euthanasia with Euthasol (Virbac, Fort Worth, Tex.). Appropriate regions of the skin were removed, fixed in 10% buffered formalin, and paraffin sections (6 μm) were stained with anti-BrdU-POD (Invitrogen, Carlsbad, Calif.). BrdU stained cells in the basal layer of the epithelium were counted in four 0.1 mm grids at 250× magnification using 2 sections/specimen; 3 tissue specimens were analyzed for each dosage of NTX in each carrier.

human and animal cells = human and animal cells (Cheng 2009); cited from earlier work
[3] = system: full-thickness cutaneous wound; assay: Healing of 5-mm full-thickness cutaneous wound in Type 2 diabetic (db/db) mice; format: in vivo; settings: 10^−5 M NTX in moisturizing cream 3 times daily, by days 6, 13, and 15, p<0.05
Text: To study the effects of opioid receptor antagonists on wound healing in a Type 2 diabetic and general obesity model, wound healing was compared between wild type and Lepr^db (also referred to as db/db) mutant mice. Mice homozygous for the diabetes spontaneous mutation (Lepr^db) become identifiably obese around 3 to 4 weeks of age. Plasma insulin levels become elevated beginning at 10 to 14 days and blood sugar levels become elevated beginning at four to eight weeks. These mice show delayed wound healing compared to wild type mice.
Mice were purchased from Jackson Laboratories and housed under standard laboratory care. Body weights and blood glucose levels of 8-week old Type 2 diabetic (db/db) mice and wild type C57Bl/6 mice were obtained (FIG. 9). Tail vein blood was obtained and glucose levels were measured by a TrueTrak glucometer. Values represent means±SEM; n=6-10 mice/treatment group.
To study wound healing, a 5-mm circular full-thickness cutaneous wound was created on the dorsum of db/db and wild type mice. Db/db mice were treated with either 10^−5 M Naltrexone (NTX) in moisturizing cream (vehicle), or vehicle alone; wild type mice received vehicle only. Applications were made 3 times daily for 15 days.

[4] = literature reports (Stinchcomb 2002; Krishman 2010); cited from earlier work
[5] = system: full-thickness cutaneous wounds; assay: Closure of 6 mm full-thickness cutaneous wounds (residual wound area, contraction, re-epithelialization); format: in vivo, rat; settings: Normal rats, 10^−5 M NTX in MCN; for reduction of wound area relative to MCN+vehicle: within 3 days
Procedure: In a second set of experiments, Normal (n=70) and DB (n=70) Sprague-Dawley rats, 12-14 weeks of age and 8 weeks after injection of STZ, were subjected to wounding. Eight rats/treatment regimen were evaluated over the course of 3 independent experiments. The dorsum of the rat was shaved, and areas (20 mm in diameter) outlined with a marker in order to consistently position the wounds. Animals were anesthetized by i.p. injection of ketamine (60 mg/kg), xylazine (10 mg/kg), and acepromazine (1 mg/kg), and a 6 mm full-thickness circular excisional skin wound was made in the center of the demarked area to the level of the panniculus muscle using an Acupunch (Acuderm Inc., Fort Lauderdale, Fla.). Three wounds per rat were standardized such that the first wound was made 5 cm posterior to the occipital notch at the posterior of the animal's cranium and 1 cm off the midline. The second wound was created 7 cm posterior to the occipital notch at the posterior of the animal's cranium and 1 cm off the midline on the opposite side from the first wound. The third wound was placed 9 cm posterior to the occipital notch at the base of the animal's cranium and 1 cm off the midline on the same side as the first wound. To minimize the effects of diurnal rhythm, surgery was performed between 0800-0900 h. All wounds were left uncovered.
Topical administration of ˜0.1 ml of the carrier containing NTX or vehicle, using the dosage and carriers selected from the first experiment, was initiated immediately after wounding (0800 h for those rats receiving agents only once per day, and at 0800, 1200, and 1600 h for those animals receiving 3 applications daily); control rats received the carrier with vehicle either once or three times daily. Some animals in the Normal and DB groups were wounded but untreated.
Wound size was monitored by capturing images with a digital camera mounted on a tripod set 20 cm from the surface; a ruler was photographed with each wound. Animals were manually restrained without anesthesia for photography. Photographs were taken immediately after surgery and on days 3, 5, 7, 9, and 11. The area of each wound was analyzed using Image ProPlus 6.2 (Media Cybernetics, Inc., Bethesda, Md.). The percent residual wound was calculated at each time point for every rat. At 8 days, wound closure also was quantified according to Pietramaggiori and colleagues (Pietramaggiori et al., J Surg Res 160:169-177 (2010)) by measuring contraction, re-epithelialization, and open wound as a percentage of the original wound area. The sum of contracted, re-epithelialized, and open wound area was defined as equaling 100% of the original wound size (Yannas I., Tissue and Organ Regeneration in Adults. New York: Springer, 2001).

O=C1CC[C@@]2(O)[C@H]3Cc4ccc(O)c5c4[C@@]2(CCN3CC2CC2)[C@H]1O5 [NTX, 17-(cyclopropylmethyl)-4,5α-epoxy-3,14-dihydroxymorphinan-6-one]
thickness of the epithelium relative to Normal animals receiving vehicle (24.6±1.6 μm) ([1]; DB rats subjected to NTX, day 20 (DB vehicle had a 44% reduction)): did not differ | general structure of the epithelium (e.g., absence of necrotic cells) ([1]; Normal and DB rats receiving vehicle or NTX, 20 days following surgery): appeared to be similar | thickness of the epithelium relative to Normal animals receiving vehicle (24.6±1.6 μm) ([1]; Normal rats treated with NTX, day 20): did not differ | increase of BrdU incorporation relative to labeling index of DB animals ([2]; systemic 30 mg/kg NTX i.p.): 181% | increase of BrdU incorporation relative to labeling index of DB animals ([2]; systemic 30 mg/kg NTX s.c.): 59% | effect on BrdU incorporation ([2]; DB rats, topical NTX 10^−4 and 10^−5 M in SPB): no effect | elevation of labeling index from baseline levels ([2]; DB rats, topical NTX at all 3 dosages in KYJ): 103-147% | elevation of labeling index from baseline levels ([2]; DB rats, topical NTX at all 3 dosages in MCN): 85-89% | efficacy on BrdU labeling ([2]; DB rats, topical NTX combined with DMSO, only at 10^−4 and 10^−5 M): efficacious | elevation of BrdU labeling relative to labeling index of Normal rats ([2]; Normal rats, systemic 30 mg/kg NTX i.p.): 172% | elevation of BrdU labeling relative to labeling index of Normal rats ([2]; Normal rats, systemic 30 mg/kg NTX s.c.): 51% | elevation of DNA synthesis from baseline levels ([2]; Normal rats, topical NTX 10^−4 M to 10^−6 M in any of the 4 carriers (SPB, DMSO, KYJ, MCN)): 43-132% | increase in BrdU incorporation in the skin compared to baseline ([2]; Normal rats, topical NTX in SPB): 43-56% | change of BrdU incorporation from baseline ([2]; Normal rats, topical NTX, different dosages, in MCN): 73-132% | toxicity of the effects on cell proliferation ([2]; T1D and normal rats, systemic or topical): not toxic | entry into cells (human and animal cells): rapidly by passive diffusion | wound healing (percent residual defect) relative to db/db mice treated with vehicle only [3]: significant improvement in would healing | penetration of the skin [4]: poor penetrator of the skin | reduction of wound size relative to MCN+vehicle ([5]; one time daily, days 3, 5, 7, and 9): 31-82% | reduction of wound area relative to MCN+vehicle ([5]; single daily regimen): 30% | reduction of wound size relative to MCN+vehicle ([5]; three times daily, days 3, 5, 7, and 9 (day 9 not significant)): 11-23% | reduction of wound area relative to MCN+vehicle ([5]; three times daily): 11%
